Where two headings read alike, the source gives them in different places.

A short description of the test: Lewis acidity: reaction rate constant of CoTPP and oxygen in the presence of a Lewis acid. Type of test: physicochemical. The method, then: Acetonitrile (MeCN) containing cobalt tetraphenylporphyrin (CoTPP), saturated O2, and a substance to be measured for the Lewis acidity (which is, for example, a cation of metal or the like and is represented by M^n+ in the following reaction scheme (A)) in the following reaction scheme (A) is measured for a change in an ultraviolet-visible absorption spectrum at room temperature. From the obtained reaction rate constant (kcat), the ΔE value (eV) as an index of the Lewis acidity can be calculated. […] The Lewis acidity of an organic compound can also be estimated from an energy level of the lowest unoccupied molecular orbital (LUMO) calculated by quantum chemical calculation.
Examples of the reaction rate constant of CoTPP and oxygen in the presence of a Lewis acid, which is an index of the Lewis acidity measured (calculated) by the above measurement method, are shown below. In the following Table 1, numerical values represented by “kcat, M^−2s^−1” are CoTPP and oxygen in the presence of a Lewis acid. The 5 numerical value represented by “LUMO, eV” is an energy level of LUMO.

Where [1] appears, read: CoTPP and oxygen in MeCN, room temperature.

In the case of Benzalkonium chloride, the kcat under setting [1] is 0.18 M^−2s^−1.
For the molecule `CCCC[N+](CCCC)(CCCC)CCCC.F[P-](F)(F)(F)(F)F` [Tetrabutylammonium hexafluorophosphate], the kcat is above 0.1 M^−2s^−1.
Benzethonium chloride: the kcat under setting [1] is listed as 0.24 M^−2s^−1.

Values taken from US20240349718A1, “COMPOSITION” (priority 2021, published 2024).
